Source: the NIST ThermoML archive (doi:10.1016/j.jct.2015.06.005)

How the values were obtained:
[1] = xn = mol fraction of the nth substance listed; details: 100 kPa, Liquid, x1 = 1; for speed of sound: Frequency=3 MHz, Sing-around technique in a fixed-path interferometer; for mass density: Vibrating tube method
[2] = refractive index (Na D-line) (dimensionless); xn = mol fraction of the nth substance listed; details: 100 kPa, Liquid, Standard Abbe refractometry, x1 = 1
[3] = refractive index (Na D-line) (dimensionless); details: 100 kPa, Liquid, Standard Abbe refractometry
[4] = 100 kPa, Liquid; for speed of sound: Frequency=3 MHz, Sing-around technique in a fixed-path interferometer; for mass density: Vibrating tube method

CCCCn1cc[n+](C)c1.F[B-](F)(F)F [1-butyl-3-methylimidazolium tetrafluoroborate] + CCCCCCCCN1CCCC1=O
Details | mass density, [1] [kg/m3] | refractive index, [2] | speed of sound, [1] [m/s]
298.15 K | 1198.78 | 1.42058 | 1565.1
303.15 K | 1195.18 | 1.41913 | 1553.2
308.15 K | 1191.6 | 1.41764 | 1541.3
313.15 K | 1188.04 | 1.41621 | 1529.7
318.15 K | 1184.5 | 1.41472 | 1518.2
323.15 K | 1180.98 | 1.4133 | 1506.8

CCCCCCCCN1CCCC1=O [N-octyl-2-pyrrolidone]
Details | mass density, [4] [kg/m3] | refractive index, [3] | speed of sound, [4] [m/s]
298.15 K | 918.45 | 1.46346 | 1450.2
303.15 K | 914.8 | 1.46152 | 1432.6
308.15 K | 911.14 | 1.45955 | 1415.3
313.15 K | 907.49 | 1.45761 | 1398
318.15 K | 903.83 | 1.45564 | 1380.9
323.15 K | 900.17 | 1.45367 | 1364
